From US20250136612A1, “4',5'-DIHYDROSPIRO[PIPERIDINE-4,7'-THIENO[2,3-C]PYRAN] DERIVATIVES AS INHIBITORS OF APOL1 AND METHODS OF USING SAME” (VERTEX PHARMACEUTICALS INCORPORATED, priority 2022, published 2025)

Target: T1, APOL1 (Homo sapiens, UniProt O14791)
T1 sequence (O14791 1-398 S342G/I384M): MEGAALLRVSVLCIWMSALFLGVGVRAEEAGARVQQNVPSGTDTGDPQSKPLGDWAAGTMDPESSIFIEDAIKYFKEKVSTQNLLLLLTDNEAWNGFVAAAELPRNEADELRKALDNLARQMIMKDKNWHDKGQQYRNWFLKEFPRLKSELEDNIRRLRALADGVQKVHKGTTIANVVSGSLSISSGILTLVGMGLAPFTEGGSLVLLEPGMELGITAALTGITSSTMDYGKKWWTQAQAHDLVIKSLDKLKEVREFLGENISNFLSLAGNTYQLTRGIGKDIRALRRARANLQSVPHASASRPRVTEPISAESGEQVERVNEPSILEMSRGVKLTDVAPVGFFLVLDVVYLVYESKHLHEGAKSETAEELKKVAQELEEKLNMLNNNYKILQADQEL
Assay: MultiTox-Fluor Multiplex Cytotoxicity Assay in tet-inducible APOL1 T-REx-HEK293 cells
Assay type: cell-based
Conditions: 50 ng/mL tet, 24 hours, ratio of dead to live cells, read-out: IP50 (i.e., IC50 for cell proliferation)
Method: The MultiTox-Fluor Multiplex Cytotoxicity Assay is a single-reagent-addition, homogeneous, fluorescence assay that measures the number of live and dead cells simultaneously in culture wells. The assay measures cell viability and cytotoxicity by detecting two distinct protease activities. The live-cell protease activity is restricted to intact viable cells and is measured using a fluorogenic, cell-permeant peptide glycyl-phenylalanylamino fluorocoumarin (GF-AFC) substrate. The substrate enters intact cells, where it is cleaved to generate a fluorescent signal proportional to the number of living cells. […] A second, cell-impermeant, fluorogenic peptide substrate (bis-AAF-R110 Substrate) is used to measure dead-cell protease that has been released from cells that have lost membrane integrity. A ratio of dead to live cells is used to normalize data.
Briefly, the tet-inducible transgenic APOL1 T-REx-HEK293 cell lines were incubated with 50 ng/mL tet to induce APOL1 in the presence of 3-(2-(4-fluorophenyl)-1H-indol-3-yl)-N-((3S,4R)-4-hydroxy-2-oxopyrrolidin-3-yl)propenamide at 10.03, 3.24, 1.13, 0.356, 0.129, 0.042, 0.129, 0.0045, 0.0015, 0.0005 μM in duplicate for 24 hours in a humidified 37° C. incubator. The MultiTox reagent was added to each well and placed back in the incubator for an additional 30 minutes. The plate was read on the EnVision plate reader. A ratio of dead to live cells was used to normalize, and data was imported, analyzed, and fit using Genedata Screener (Basel, Switzerland) software. Data was normalized using percent of control, no tet (100% viability), and 50 ng/mL tet treated (0% viability),and fit using Smart Fit. The reagents, methods, and complete protocol for the MultiTox assay are described below.
Human embryonic kidney (HEK293) cell lines containing a tet-inducible expression system (T-REx™; Invitrogen, Carlsbad, CA) and Adeno-associated virus site 1 pAAVS1-Puro-APOL1 G0 or pAAVS1-Puro-APOL1 G1 or pAAVS1-Puro-APOL1 G2 Clones G0 DC2.13, G1 DC3.25, and G2 DC4.44 were grown in a T-225 flask at ˜90% confluency in cell growth media (DMEM, 10% Tet-free FBS, 2 mM L-glutamine, 100 Units/mL penicillin-streptomycin, 5 μg/mL blasticidin S HCl, 1 μg/mL puromycin dihydrochloride). Cells were washed with DPBS and then trypsinized to dissociate from the flask. Media was used to quench the trypsin, cells were then pelleted at 200 g and resuspended in fresh cell assay media (DMEM, 2% Tet-free FBS, 2 mM L-glutamine, 100 Units/mL penicillin-streptomycin). Cells were counted and diluted to 1.17×10^6 cells/mL. 20 μL of cells (23,400/well) were dispensed in every well of a 384-well Poly-D-Lysine coated plate using the Multidrop dispenser. The plates were then incubated at room temperature for one hour.
Tetracycline is needed to induce APOL1 expression. 1 mg/mL tet stock in water was diluted to 250 ng/mL (5×) in cell assay media. 60 μL of cell assay media (no tet control) was dispensed in columns 1 and 24, and 60 μL of 5×tet in 384-PP-round bottom plate was dispensed in columns 2 to 23 with the Multidrop dispenser.
Assay ready plates from the Global Compound Archive were ordered using template 384_APOL1Cell_DR10n2_50 uM_v3. Compounds were dispensed at 200 nL in DMSO. The final top concentration was 10 μM with a 10 point 3-fold dilution in duplicate in the MultiTox assay.
20 μL was transferred from the 5×tet plate to the ARP and mixed, then 5 μL of 5×tet and the compounds were transferred to the cell plate and mixed using the Bravo. The cell plate was placed in the humidified 37° C. 5% CO2 incubator for 24 hours.
The MultiTox-Fluor Multiplex Cytotoxicity Assay was performed in accordance with the manufacturer's protocol. After cells were incubated with tet and compound for 24 hours, 25 μL of 1×MultiTox reagent was added to each well using the Multidrop dispenser; the plates were placed on a plate shaker (600 rpm) for 2 minutes, then centrifuged briefly and placed back in the 37° C. incubator for 30 minutes. […]

Q: How did the IC50 turn out when Clc1cc2c(s1)[C@@]1(CCN[C@H](c3cn[nH]c3)C1)OCC2 [Compound 26] was run?
A: The IC50 was less than 100 nM.

Q: Oc1ccc(-n2cc([C@@H]3C[C@]4(CCN3)OCCc3cc(Cl)sc34)nn2)cc1 [Compound 65] was tested. Which IC50 did it give?
A: Its IC50 is 100 to 500 nM.

Q: Which IC50 does the source give for Cn1ncc(C2CC3(CCN2)OCCc2cc(Cl)sc23)n1 (centres unmarked) [Compound 17] here?
A: Its IC50 is 500 to 1000 nM.

Q: Fc1ccc(-n2cc([C@@H]3C[C@]4(CCN3)OCCc3cc(Cl)sc34)nn2)cc1 [Compound 72] was tested. Which IC50 did it give?
A: The IC50 was 500 to 1000 nM.

Q: For FC(F)(F)c1cc2c(s1)CCOC21CCNC(C2CC2)C1 (centres unmarked) [Compound 21], which IC50 is on record?
A: Its IC50 is 100 to 500 nM.

Q: With Clc1cc2c(s1)[C@@]1(CCN[C@H](c3cn(-c4cccnc4)nn3)C1)OCC2 [Compound 63] as the molecule, how does the IC50 read?
A: The IC50 was 100 to 500 nM.

Q: Which IC50 does the source give for CCc1cc2c(s1)CCOC21CCNC(c2cn(C)nn2)C1 (centres unmarked) [Compound 10] here?
A: The IC50 was 100 to 500 nM.

Q: How did the IC50 turn out when Cn1cc(C2CC3(CCN2)OCC(O)c2cc(C4CC(F)(F)C4)sc23)nn1 (centres unmarked) [Compound 47] was run?
A: Its IC50 is 500 to 1000 nM.

Q: How did the IC50 turn out when COc1ccc(-n2cc([C@@H]3C[C@]4(CCN3)OCCc3cc(Cl)sc34)nn2)cc1 [Compound 67] was run?
A: Its IC50 is 100 to 500 nM.

Q: With Cn1cc(C2CC3(CCN2)OCCc2cc(C4CC(F)(F)C4)sc23)nn1 (centres unmarked) [Compound 46, 2-(3,3-difluorocyclobutyl)-2′-(1-methyltriazol-4-yl)spiro[4,5-dihydrothieno[2,3-c]pyran-7,4′-piperidine]] as the molecule, how does the IC50 read?
A: Its IC50 is 100 to 500 nM.

Q: With Cn1cc([C@@H]2C[C@]3(CCN2)OCC(O)(C(F)F)c2cc(Cl)sc23)nn1 (single isomer, unassigned) [Compound 39] as the molecule, how does the IC50 read?
A: The IC50 was 500 to 1000 nM.

Q: Which IC50 does the source give for Cn1cc(C2CC3(CCN2)OCCc2sc(Cl)cc23)nn1 (centres unmarked) [Compound 11] here?
A: The IC50 was 500 to 1000 nM.

Q: Which IC50 does the source give for CCc1cc2c(s1)CCOC21CCNC(c2ccc(F)cc2)C1 (single isomer, unassigned) [Compound 78, 2-ethyl-2′-(4-fluorophenyl)spiro[6,7-dihydrothieno[3,2-c]pyran-4,4′-piperidine]] here?
A: Its IC50 is 500 to 1000 nM.

Q: Which IC50 does the source give for CN(C)C(=O)c1ccc(-n2cc([C@@H]3C[C@]4(CCN3)OCCc3cc(Cl)sc34)nn2)cc1 [Compound 68] here?
A: The IC50 was 100 to 500 nM.

Q: With Cc1cc([C@@H]2C[C@]3(CCN2)OCCc2cc(Cl)sc23)on1 (single isomer, unassigned) [Compound 25] as the molecule, how does the IC50 read?
A: Its IC50 is 100 to 500 nM.

Q: For CCc1cc2c(s1)CCOC21CCNC(c2cn[nH]c2)C1 (centres unmarked) [Compound 13], which IC50 is on record?
A: The IC50 was 500 to 1000 nM.

Q: For CCc1cc2c(s1)CCOC21CCNC(C2CC2)C1 (centres unmarked) [Compound 3, 2′-cyclopropyl-2-ethyl-spiro[6,7-dihydrothieno[3,2-c]pyran-4,4′-piperidine]], which IC50 is on record?
A: The IC50 was 100 to 500 nM.

Q: Which IC50 does the source give for [2H]C1([2H])CO[C@]2(CCN[C@H](c3cn(C)nn3)C2)c2sc(Cl)cc21 [Compound 43, (2'S, 7S)-2-chloro-4,4-dideuterio-2′-(1-methyltriazol-4-yl)spiro[5H-thieno[2,3-c]pyran-7,4′-piperidine]] here?
A: The IC50 was 100 to 500 nM.

Q: For CCc1cc2c(s1)CCOC21CCNC(c2ccnnc2)C1 (centres unmarked) [Compound 15], which IC50 is on record?
A: The IC50 was 500 to 1000 nM.

Q: CC(O)c1c(C(F)(F)F)sc2c1CCOC21CCN[C@H](c2cn(C)nn2)C1 (single isomer, unassigned) [Compound 53] was tested. Which IC50 did it give?
A: The IC50 was less than 100 nM.

Q: NC(=O)c1cc(-n2cc([C@@H]3C[C@]4(CCN3)OCCc3cc(Cl)sc34)nn2)ccc1F [Compound 57] was tested. Which IC50 did it give?
A: Its IC50 is less than 100 nM.

Q: With Cn1cc(C2CC3(CCN2)OCCc2cc(C(F)(F)F)sc23)nn1 (centres unmarked) [Compound 5] as the molecule, how does the IC50 read?
A: The IC50 was less than 100 nM.

Q: Which IC50 does the source give for CNC(=O)c1cc(-n2cc([C@@H]3C[C@]4(CCN3)OCCc3cc(Cl)sc34)nn2)ccc1OC [Compound 58] here?
A: Its IC50 is 100 to 500 nM.

Q: Which IC50 does the source give for Cn1cc([C@@H]2CC3(CCN2)OCCc2c3sc(C(F)(F)F)c2CO)nn1 (stereo partly drawn) [Compound 51, ((2S)-2-(1-methyl-1H-1,2,3-triazol-4-yl)-2′-(trifluoromethyl)-4′,5′-dihydrospiro[piperidine-4,7′-thieno[2,3-c]pyran]-3′-yl)methanol] here?
A: Its IC50 is less than 100 nM.

Q: With O=C1NCc2cc(-n3cc([C@@H]4C[C@]5(CCN4)OCCc4cc(Cl)sc45)nn3)ccc21 [Compound 61] as the molecule, how does the IC50 read?
A: The IC50 was 100 to 500 nM.

Q: How did the IC50 turn out when Cn1cc([C@@H]2C[C@]3(CCN2)OCC(O)(C(F)F)c2cc(Cl)sc23)nn1 (single isomer, unassigned) [Compound 40] was run?
A: Its IC50 is less than 100 nM.
